Measurements: PubChem BioAssay AID250 (DTP/NCI, 2004)
“And” between values parts separate entries of the source, which are not always exact repeats. Equal values may be shown once. Inconclusive results and toxic doses are left out.

System: BDF1 mice, L1210 leukemia sc, survival T/C
Test: NCI In Vivo Anticancer Drug Screen. Data for tumor model L1210 Leukemia (subcutaneous) in B6D2F1 (BDF1) mice
Details: endpoint: median survival time, higher = longer survival
How it was run: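 Antitumor activity is assessed in mice with transplanted tumors by comparing the treated group (T) with the vehicle control group (C).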

[1] = dose: 3.0 mg/kg/injection, schedule: Q01DX Z (sc), vehicle: saline
[2] = dose: 5.0 mg/kg/injection, schedule: Q01DX Z (sc), vehicle: saline
[3] = dose: 14.0 mg/kg/injection, schedule: Q01DX Z (sc), vehicle: saline
[4] = dose: 23.0 mg/kg/injection, schedule: Q01DX Z (sc), vehicle: saline
[5] = dose: 39.0 mg/kg/injection, schedule: Q01DX Z (sc), vehicle: saline
[6] = dose: 65.0 mg/kg/injection, schedule: Q01DX Z (sc), vehicle: saline
[7] = dose: 108.0 mg/kg/injection, schedule: Q01DX Z (sc), vehicle: saline
[8] = dose: 180.0 mg/kg/injection, schedule: Q01DX Z (sc), vehicle: saline
[9] = dose: 14.0 mg/kg/injection, schedule: Q01DX Z (sc), vehicle: carboxymethylcellulose (CMC)
[10] = dose: 23.0 mg/kg/injection, schedule: Q01DX Z (sc), vehicle: carboxymethylcellulose (CMC)
[11] = dose: 65.0 mg/kg/injection, schedule: Q01DX Z (sc), vehicle: carboxymethylcellulose (CMC)
[12] = dose: 108.0 mg/kg/injection, schedule: Q01DX Z (sc), vehicle: carboxymethylcellulose (CMC)

Compound: Nc1n[nH]c(N)n1
- T/C (dose: 125.0 mg/kg/injection, schedule: Q03HX024 (sc), vehicle: none): 110 % of control
- T/C (dose: 180.0 mg/kg/injection, schedule: Q03HX024 (ip), vehicle: water): 116 % of control
- T/C (dose: 180.0 mg/kg/injection, schedule: Q03HX024 (sc), vehicle: water): 122 % of control
- T/C (dose: 250.0 mg/kg/injection, schedule: Q03HX024 (sc), vehicle: none): 120 % of control
- T/C (dose: 250.0 mg/kg/injection, schedule: Q#A X018 (sc), vehicle: none): 120 % of control
- T/C (dose: 432.0 mg/kg/injection, schedule: Q01DX Z (sc), vehicle: water): 104 % of control
- T/C (dose: 500.0 mg/kg/injection, schedule: Q03HX024 (ip), vehicle: water): 177 % of control
- T/C (dose: 500.0 mg/kg/injection, schedule: Q03HX024 (sc), vehicle: water): 166 % of control
- T/C (dose: 500.0 mg/kg/injection, schedule: Q04DX003 (sc), vehicle: none): 110 % of control
- T/C (dose: 500.0 mg/kg/injection, schedule: Q#A X018 (sc), vehicle: none): 160 % of control
- T/C (dose: 720.0 mg/kg/injection, schedule: Q01DX Z (sc), vehicle: water): 109 % of control
- T/C (dose: 1000.0 mg/kg/injection, schedule: Q03HX024 (sc), vehicle: none): 110 % of control
- T/C (dose: 1000.0 mg/kg/injection, schedule: Q04DX003 (sc), vehicle: none): 110 % of control
- T/C (dose: 1000.0 mg/kg/injection, schedule: Q08DX009 (sc), vehicle: none): 150 % of control
- T/C (dose: 1000.0 mg/kg/injection, schedule: Q#A X018 (sc), vehicle: none): 100 % of control
- T/C (dose: 2000.0 mg/kg/injection, schedule: Q01DX Z (sc), vehicle: water): 150 % of control
- T/C (dose: 2000.0 mg/kg/injection, schedule: Q04DX003 (sc), vehicle: none): 115 % of control
- T/C (dose: 2000.0 mg/kg/injection, schedule: Q#A X018 (sc), vehicle: none): 90 % of control
- T/C (dose: 4000.0 mg/kg/injection, schedule: Q04DX003 (sc), vehicle: none): 120 % of control
- T/C (dose: 4000.0 mg/kg/injection, schedule: Q08DX009 (sc), vehicle: none): 150 % of control

Compound: O=C(CCN1CC1)OCCOC(=O)CCN1CC1
- T/C (dose: 4.7 mg/kg/injection, schedule: Q01DX Z (sc), vehicle: saline): 100 % of control
- T/C (dose: 7.8 mg/kg/injection, schedule: Q01DX Z (sc), vehicle: saline): 100 % of control
- T/C (dose: 13.0 mg/kg/injection, schedule: Q01DX Z (sc), vehicle: saline): 100 % of control
- T/C (dose: 21.0 mg/kg/injection, schedule: Q01DX Z (sc), vehicle: saline): 111 % of control

Compound: N=[N+]=CC(=O)CCC(NC(=O)C(CCC(=O)C=[N+]=N)NC(=O)CCC(N)C(=O)O)C(=O)O (stereo not given)
- T/C (dose: 0.1 mg/kg/injection, schedule: Q01DX009 (ip), vehicle: water): 94 % of control
- T/C (dose: 0.1 mg/kg/injection, schedule: Q01DX009 (sc), vehicle: water): 95 % of control and 106 % of control
- T/C (dose: 0.2 mg/kg/injection, schedule: Q01DX009 (ip), vehicle: water): 94 % of control
- T/C (dose: 0.2 mg/kg/injection, schedule: Q01DX009 (sc), vehicle: water): 102 % of control
- T/C (dose: 0.4 mg/kg/injection, schedule: Q01DX009 (ip), vehicle: water): 95 % of control
- T/C (dose: 0.4 mg/kg/injection, schedule: Q01DX009 (sc), vehicle: water): 103 % of control
- T/C (dose: 0.8 mg/kg/injection, schedule: Q01DX009 (ip), vehicle: water): 95 % of control
- T/C (dose: 0.8 mg/kg/injection, schedule: Q01DX009 (sc), vehicle: water): 101 % of control and 102 % of control
- T/C (dose: 1.6 mg/kg/injection, schedule: Q01DX009 (ip), vehicle: water): 91 % of control
- T/C (dose: 1.6 mg/kg/injection, schedule: Q01DX009 (sc), vehicle: water): 103 % of control and 106 % of control

Compound: C[n+]1cccc2cc(NC(=O)c3ccc(C(=O)Nc4ccc5c(ccc[n+]5C)c4)cc3)ccc21
- T/C [1]: 100 % of control
- T/C [2]: 100 % of control
- T/C (dose: 8.4 mg/kg/injection, schedule: Q01DX Z (sc), vehicle: saline): 100 % of control
- T/C [3]: 105 % of control
- T/C [4]: 100 % of control
- T/C [5]: 233 % of control
- T/C [6]: 172 % of control
- T/C [7]: 205 % of control
- T/C [8]: 194 % of control

Compound: CNNCc1ccc(C(=O)NC(C)C)cc1
- T/C (dose: 65.0 mg/kg/injection, schedule: Q01DX009 (sc), vehicle: saline): 116 % of control and 122 % of control
- T/C (dose: 65.0 mg/kg/injection, schedule: Q01DX014 (sc), vehicle: saline): 119 % of control and 122 % of control
- T/C (dose: 65.0 mg/kg/injection, schedule: Q01DX015 (sc), vehicle: saline): 122 % of control
- T/C (dose: 108.0 mg/kg/injection, schedule: Q01DX014 (sc), vehicle: saline): 111 % of control
- T/C (dose: 108.0 mg/kg/injection, schedule: Q01DX015 (sc), vehicle: saline): 122 % of control and 123 % of control
- T/C (dose: 180.0 mg/kg/injection, schedule: Q01DX015 (sc), vehicle: saline): 150 % of control
- T/C (dose: 300.0 mg/kg/injection, schedule: Q01DX015 (sc), vehicle: saline): 163 % of control and 166 % of control
- T/C (dose: 500.0 mg/kg/injection, schedule: Q01DX014 (sc), vehicle: saline): 122 % of control
- T/C (dose: 500.0 mg/kg/injection, schedule: Q01DX015 (sc), vehicle: saline): 116 % of control and 117 % of control

Compound: O=NN(CCF)C(=O)NC12CC3CC(CC(C3)C1)C2
- T/C [9]: 100 % of control
- T/C [10]: 100 % of control
- T/C [11]: 388 % of control
- T/C [12]: 200 % of control

Compound: CN(O)C(N)=O
- T/C (dose: 360.0 mg/kg/injection, schedule: Q01DX Z (sc), vehicle: saline): 150 % of control

Compound: O=c1[nH]cc(Br)c(=O)[nH]1
- T/C (dose: 38.9 mg/kg/injection, schedule: Q01DX Z (sc), vehicle: saline): 91 % of control
- T/C (dose: 64.8 mg/kg/injection, schedule: Q01DX Z (sc), vehicle: saline): 95 % of control
- T/C [7]: 100 % of control
- T/C [8]: 100 % of control
- T/C (dose: 300.0 mg/kg/injection, schedule: Q01DX Z (sc), vehicle: saline): 100 % of control
- T/C (dose: 500.0 mg/kg/injection, schedule: Q01DX Z (sc), vehicle: saline): 100 % of control

Compound: NC(Cc1ccc(N(CCCl)CCCl)cc1)C(=O)O (stereo not given)
- T/C (dose: 1.09 mg/kg/injection, schedule: Q01DX Z (sc), vehicle: water): 100 % of control
- T/C (dose: 1.81 mg/kg/injection, schedule: Q01DX Z (sc), vehicle: water): 100 % of control
- T/C [1]: 100 % of control
- T/C (dose: 3.02 mg/kg/injection, schedule: Q01DX Z (sc), vehicle: water): 95 % of control
- T/C [2]: 111 % of control
- T/C (dose: 5.04 mg/kg/injection, schedule: Q01DX Z (sc), vehicle: water): 100 % of control
- T/C (dose: 8.4 mg/kg/injection, schedule: Q01DX Z (sc), vehicle: water): 100 % of control
- T/C [3]: 155 % of control
- T/C [4]: 122 % of control
- T/C [5]: 122 % of control
- T/C [6]: 122 % of control
- T/C [7]: 111 % of control

Compound: CCOC(=O)CCC(NC(=O)N(CCCl)CCCl)C(=O)OCC (stereo not given)
- T/C (dose: 65.0 mg/kg/injection, schedule: Q01DX Z (sc), vehicle: water): 106 % of control
- T/C (dose: 108.0 mg/kg/injection, schedule: Q01DX Z (sc), vehicle: water): 112 % of control
- T/C (dose: 180.0 mg/kg/injection, schedule: Q01DX Z (sc), vehicle: water): 100 % of control
- T/C (dose: 300.0 mg/kg/injection, schedule: Q01DX Z (sc), vehicle: water): 100 % of control
- T/C (dose: 500.0 mg/kg/injection, schedule: Q01DX Z (sc), vehicle: water): 112 % of control

Compound: CCc1nc(N)nc(N)c1-c1ccc(Cl)cc1
- T/C (dose: 108.0 mg/kg/injection, schedule: Q01DX Z (sc), vehicle: methylcellulose (MC)): 118 % of control

Compound: COc1cc2c3c(c4ccc(OC)c(OC)c4c2cc1OC)CN1CCC[C@@H]1C3
- T/C (dose: 3.0 mg/kg/injection, schedule: Q01DX Z (sc), vehicle: carboxymethylcellulose (CMC)): 100 % of control
- T/C (dose: 5.0 mg/kg/injection, schedule: Q01DX Z (sc), vehicle: carboxymethylcellulose (CMC)): 100 % of control
- T/C (dose: 8.4 mg/kg/injection, schedule: Q01DX Z (sc), vehicle: carboxymethylcellulose (CMC)): 100 % of control
- T/C [9]: 95 % of control
- T/C [10]: 90 % of control and 105 % of control
- T/C (dose: 39.0 mg/kg/injection, schedule: Q01DX Z (sc), vehicle: carboxymethylcellulose (CMC)): 100 % of control
- T/C [11]: 110 % of control
- T/C [12]: 105 % of control
- T/C (dose: 180.0 mg/kg/injection, schedule: Q01DX Z (sc), vehicle: carboxymethylcellulose (CMC)): 115 % of control
